The numbers were not newly measured in paper PMC2981028 (Cancer research, 2010), which cites them from elsewhere.

One series addresses insulin receptor (IR) (Homo sapiens, UniProt P06213). As to the kind of experiment: inhibition of IR phosphorylation in vitro. In kind it is cell-based.
Series [1] has as its target type 1 insulin-like growth factor receptor (IGF-1R) (Homo sapiens, UniProt P08069). The experiment in a line: inhibition of IGF-1R phosphorylation in vitro. In kind it is cell-based.

Chain of type 1 insulin-like growth factor receptor (IGF-1R) (P08069 31-736): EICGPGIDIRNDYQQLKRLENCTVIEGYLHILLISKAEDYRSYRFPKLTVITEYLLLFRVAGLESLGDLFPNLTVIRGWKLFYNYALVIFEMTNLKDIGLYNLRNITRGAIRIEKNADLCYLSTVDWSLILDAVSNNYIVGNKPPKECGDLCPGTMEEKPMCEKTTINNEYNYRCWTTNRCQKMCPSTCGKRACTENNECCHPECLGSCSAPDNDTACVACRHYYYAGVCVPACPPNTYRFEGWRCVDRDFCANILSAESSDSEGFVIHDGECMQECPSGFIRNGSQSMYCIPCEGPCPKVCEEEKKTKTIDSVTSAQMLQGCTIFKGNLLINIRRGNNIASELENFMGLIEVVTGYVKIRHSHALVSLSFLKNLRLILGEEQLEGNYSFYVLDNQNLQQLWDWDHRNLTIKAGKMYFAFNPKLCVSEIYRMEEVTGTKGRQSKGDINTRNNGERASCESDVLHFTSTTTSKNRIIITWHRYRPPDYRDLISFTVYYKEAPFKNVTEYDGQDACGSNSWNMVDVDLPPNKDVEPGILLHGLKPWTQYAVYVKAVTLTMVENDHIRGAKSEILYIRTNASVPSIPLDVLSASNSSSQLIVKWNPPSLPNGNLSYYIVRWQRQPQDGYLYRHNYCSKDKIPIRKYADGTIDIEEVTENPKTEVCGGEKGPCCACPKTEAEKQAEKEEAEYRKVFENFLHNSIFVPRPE
Chain of type 1 insulin-like growth factor receptor (IGF-1R) (P08069 741-1367): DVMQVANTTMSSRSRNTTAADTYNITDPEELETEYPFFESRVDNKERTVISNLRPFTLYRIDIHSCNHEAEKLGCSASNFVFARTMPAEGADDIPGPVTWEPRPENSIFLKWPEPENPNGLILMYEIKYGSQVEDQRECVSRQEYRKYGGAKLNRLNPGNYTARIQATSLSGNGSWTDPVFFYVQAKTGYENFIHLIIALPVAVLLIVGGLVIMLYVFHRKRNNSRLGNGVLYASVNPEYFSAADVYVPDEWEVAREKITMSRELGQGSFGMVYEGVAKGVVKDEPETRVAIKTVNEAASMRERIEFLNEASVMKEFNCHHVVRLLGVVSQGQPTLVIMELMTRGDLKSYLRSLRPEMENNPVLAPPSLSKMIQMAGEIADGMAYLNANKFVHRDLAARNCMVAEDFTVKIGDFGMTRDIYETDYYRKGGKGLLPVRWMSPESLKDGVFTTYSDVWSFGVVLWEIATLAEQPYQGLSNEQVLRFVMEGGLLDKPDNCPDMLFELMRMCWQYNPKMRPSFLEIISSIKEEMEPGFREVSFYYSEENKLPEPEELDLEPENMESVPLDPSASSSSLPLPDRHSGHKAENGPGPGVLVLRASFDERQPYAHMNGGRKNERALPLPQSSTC
Chain of insulin receptor (IR) (P06213 28-758): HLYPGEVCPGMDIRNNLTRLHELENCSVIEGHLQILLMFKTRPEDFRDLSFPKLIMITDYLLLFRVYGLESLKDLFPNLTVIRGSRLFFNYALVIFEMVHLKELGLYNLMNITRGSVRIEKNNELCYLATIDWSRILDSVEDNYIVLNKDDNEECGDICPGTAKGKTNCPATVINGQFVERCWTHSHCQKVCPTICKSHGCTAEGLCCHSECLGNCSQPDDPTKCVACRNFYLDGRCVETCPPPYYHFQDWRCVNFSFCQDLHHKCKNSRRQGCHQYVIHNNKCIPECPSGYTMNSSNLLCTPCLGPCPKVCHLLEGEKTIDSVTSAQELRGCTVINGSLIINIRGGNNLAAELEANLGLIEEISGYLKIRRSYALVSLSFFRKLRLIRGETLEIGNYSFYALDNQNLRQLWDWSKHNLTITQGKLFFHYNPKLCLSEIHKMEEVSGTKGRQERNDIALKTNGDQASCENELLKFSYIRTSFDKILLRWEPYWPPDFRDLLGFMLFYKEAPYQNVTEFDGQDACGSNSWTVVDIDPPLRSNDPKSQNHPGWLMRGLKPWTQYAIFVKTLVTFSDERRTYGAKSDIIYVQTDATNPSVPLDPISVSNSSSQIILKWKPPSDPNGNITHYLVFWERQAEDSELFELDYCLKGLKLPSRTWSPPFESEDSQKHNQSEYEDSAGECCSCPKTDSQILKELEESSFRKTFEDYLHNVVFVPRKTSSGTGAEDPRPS
Chain of insulin receptor (IR) (P06213 763-1382): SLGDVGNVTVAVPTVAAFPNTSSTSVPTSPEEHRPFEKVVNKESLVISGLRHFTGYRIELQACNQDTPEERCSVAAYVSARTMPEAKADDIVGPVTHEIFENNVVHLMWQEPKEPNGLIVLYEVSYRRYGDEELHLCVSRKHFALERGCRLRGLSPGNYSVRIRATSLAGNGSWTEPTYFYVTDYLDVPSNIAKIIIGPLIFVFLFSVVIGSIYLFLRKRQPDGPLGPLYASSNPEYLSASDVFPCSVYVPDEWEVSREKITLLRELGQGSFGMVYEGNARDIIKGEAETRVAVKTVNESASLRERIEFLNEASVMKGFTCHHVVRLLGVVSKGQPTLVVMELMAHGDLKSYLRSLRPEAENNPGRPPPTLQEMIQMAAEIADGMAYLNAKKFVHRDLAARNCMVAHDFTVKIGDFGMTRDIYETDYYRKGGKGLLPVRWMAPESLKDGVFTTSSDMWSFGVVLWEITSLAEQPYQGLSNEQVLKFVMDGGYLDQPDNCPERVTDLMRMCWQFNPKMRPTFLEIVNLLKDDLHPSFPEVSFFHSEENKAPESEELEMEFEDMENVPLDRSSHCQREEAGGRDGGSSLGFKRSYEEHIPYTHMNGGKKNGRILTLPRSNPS

Consider `Cc1cc(Nc2cc(C)[nH]n2)nc(N2CCC[C@H]2c2cc(-c3ccccn3)no2)n1` [AZ12253801], for which the IC50 (in general, the concentration that gives 50% inhibition) on insulin receptor (IR) was 19 nM; in series [1], 2.1 nM.
